Data from patent US9629892B2, “Treatment of penetrative injury to the brain” (NoNO Inc., priority 2010, dated 2017).
Entries after “also recorded” stand apart in the source; their conditions may differ.

Key:
[1] = target: binding of NMDAR 2B to PSD95 (Homo sapiens, UniProt P78352); conditions: reported by Bach; cited from earlier work
PBBI rats [2] = assay: Neuroscore after PBBI injury; type: in vivo, rat; conditions: Study 1, 0.5 mg/kg i.v. 8 minute infusion 30 minutes after PBBI, 72 hours post-PBBI, vs PBBI/veh
Method: (§1) Body weight was assessed at time 0 (baseline), 24, 72 h and 7 days post injury. Body temperature was assessed at time 0, 30 min (prior to treatment), 2, 24, 72 h, and 7 days post injury. Neuroscore was assessed at 0, 30 min (prior to treatment), 24, 72 h, 7 days post injury. Balance beam was assessed at time 0, 3, and 7 days post injury. Rotarod was assessed at time 0 and 7 days post injury.
Columns=means; error bars=SEM; *p<0.05 compared to PBBI; †p<0.05 compared to 0.05 mg/kg Tat-NR2B9c; #p<0.05 compared to 0.275 mg/kg Tat-NR2B9c.

PBBI rats [3] = assay: Balance beam footfaults after PBBI injury; type: in vivo, rat; conditions: for footfaults per beam segment contralateral to site of injury / rats unable to cross the beam (assigned maximal footfault scores): 3 days post-PBBI; for rats unable to cross the beam: 7 days post-PBBI
PBBI rats [4] = assay: Fixed-speed rotarod task after PBBI injury; type: in vivo, rat; conditions: for rotarod task recovery: Study 1, 0.50 mg/kg, 7 days post-PBBI
Method: as §1
FIGS. 3A and B show dose-response studies on a rotarod. Rats were trained to criteria on the fixed-speed version of the rotarod task prior to PBBI and tested at 7 days post-PBBI. […] Columns=means; error bars=SEM; *p<0.05 compared to PBBI

PBBI rats [5] = assay: Morris Water Maze (MWM) task after PBBI; type: in vivo, rat; conditions: multiple dosing (four injections at 30 minutes, 24, 48 and 72 hours post-PBBI; 0.5 and 5 mg/kg); at 5 or more days
Method: FIGS. 6A-D show the effects of multiple dosing regimes on neuroscore, rotarod and MWM performance Animals were given four injections of Tat-NR2B9c post-PBBI at 30 minutes, 24 hours, 48 hours and 72 hours.

PBBI rats [6] = assay: Body temperature after PBBI and dosing; type: in vivo, rat; conditions: approximately 90 minutes following PBBI (60 minutes following dosing)
PBBI rats [7] = assay: PBBI neuropathology: lesion volume in brain sections (H&E, TTC staining); conditions: for overall (total) lesion volume: Study 1, H&E stained sections, 7 days
Method: Male Sprague-Dawley rats (250-300 g) were subjected to a simulated ballistic wound to the right frontal hemisphere implemented by an inflatable penetrating probe. Three levels of injury severity were compared to control animals. Neurological and physiological outcome was assessed over a 3-day recovery period and brain tissue collected at 72 h for histopathological evaluation.
Tat-NR2B9c was administered i.v. in the jugular vein by an 8 minute infusion 30 minutes after inducing brain injury. Rats were sacrificed for histologic examination after 7 days. The dose of Tat-NR2B9c was Study I: 0.5 and 5.0 mg/ml/kg and Study II: 0.05, 0.275, and 0.5 mg/ml/kg. The rats were subject to the following treatments in Study I and II (sham=rat not subject to ballistic injury, PBBI=penetrative ballistic brain injury, veh=vehicle).
Study 1 evaluated two concentrations of Tat-NR2B9c (0.5 mg/kg and 5.0 mg/kg) (n=10 each group) with a survival period of 1 week. […] Behavioral and histological endpoints for both experiments included neurological assessments on neuroscore, balance beam, and rotarod tests, and lesion reconstruction on H&E stained sections.
As with the previous experiments, Tat-NR2B9c was administered as a slow bolus (8 minute) 30 minutes after PBBI.

cerebral ischemia = conditions: reported in WO 2008/014917; cited from earlier work

binding of NMDAR 2B to PSD95, sequence (P78352 whole entry, the tested form may be a part): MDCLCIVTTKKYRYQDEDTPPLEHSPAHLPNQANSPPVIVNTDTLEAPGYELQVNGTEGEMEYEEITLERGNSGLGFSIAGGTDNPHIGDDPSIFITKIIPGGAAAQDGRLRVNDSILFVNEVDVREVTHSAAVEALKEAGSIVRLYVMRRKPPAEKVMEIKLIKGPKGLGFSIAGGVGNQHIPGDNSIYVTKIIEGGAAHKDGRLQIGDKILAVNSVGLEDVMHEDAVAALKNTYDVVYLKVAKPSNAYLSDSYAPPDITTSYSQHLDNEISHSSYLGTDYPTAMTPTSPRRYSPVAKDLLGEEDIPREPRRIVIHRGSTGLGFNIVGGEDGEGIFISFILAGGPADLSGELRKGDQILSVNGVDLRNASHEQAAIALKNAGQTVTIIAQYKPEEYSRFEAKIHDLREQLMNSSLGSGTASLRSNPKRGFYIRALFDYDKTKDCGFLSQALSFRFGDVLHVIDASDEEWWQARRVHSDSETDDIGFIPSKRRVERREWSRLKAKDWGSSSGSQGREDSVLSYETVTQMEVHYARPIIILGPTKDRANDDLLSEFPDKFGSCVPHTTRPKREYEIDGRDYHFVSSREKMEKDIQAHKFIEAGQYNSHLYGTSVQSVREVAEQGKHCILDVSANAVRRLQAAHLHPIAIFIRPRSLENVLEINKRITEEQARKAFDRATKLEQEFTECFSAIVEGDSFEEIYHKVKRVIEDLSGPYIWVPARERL

Substance: IESDV (listed as Homo sapiens)
- inhibition of binding of NMDAR 2B to PSD95 [1]: effective in inhibiting binding of NMDAR 2B to PSD95

Substance: YGRKKRRQRRRKLSSIESDV [Tat-NR2B9c]
- neuroscore (PBBI-induced neurological deficits) (PBBI rats [2]): significant, reduction in PBBI-induced neurological deficits; also recorded: significantly improved neuroscore
- footfaults per beam segment contralateral to site of injury (PBBI rats [3]; Study 1, 0.5 mg/kg, vs PBBI rats): made significantly fewer foot faults than the PBBI rats
- footfaults per beam segment contralateral to site of injury (PBBI rats [3]; Study 1, 5.0 mg/kg, vs PBBI rats): made significantly fewer foot faults than the PBBI rats
- rats unable to cross the beam (assigned maximal footfault scores) (PBBI rats [3]; Study 1, high-dose, of 10 animals per group): two
- rats unable to cross the beam (PBBI rats [3]; Study 1, high-dose): one
- rats unable to cross the beam (assigned maximal footfault scores) (PBBI rats [3]; Study 1, low-dose, of 10 animals per group): two
- footfaults per beam segment contralateral to site of injury (PBBI rats [3]; Study 2, 0.275 mg/kg, narrowest beam segment, vs PBBI animals): made fewer footfaults than the PBBI animals
- footfaults per beam segment contralateral to site of injury (PBBI rats [3]; Study 2, 0.50 mg/kg, narrowest beam segment, vs PBBI animals): made fewer footfaults than the PBBI animals
- rats unable to cross the beam (assigned maximal footfault scores) (PBBI rats [3]; Study 2, high-dose, of 10-11 animals per group): one
- rats unable to cross the beam (assigned maximal footfault scores) (PBBI rats [3]; Study 2, low-dose, of 10-11 animals per group): three
- rats unable to cross the beam (PBBI rats [3]; Study 2, low-dose): one
- rats unable to cross the beam (assigned maximal footfault scores) (PBBI rats [3]; Study 2, medium-dose, of 10-11 animals per group): one
- mean rotarod latencies across speeds relative to vehicle-treated PBBI rats (PBBI rats [4]; 20 mg/kg single slow bolus 30 minutes after PBBI): > 2 fold
- mean rotarod latency across speeds (PBBI rats [4]; 20 mg/kg, p<0.05 vs PBBI/veh): 29 ± 3 s
- rotarod performance (PBBI rats [4]; Study 1 (FIG. 3A), 0.5 mg/kg, summary statement): significantly improved
- rotarod task recovery (PBBI rats [4]; higher speeds (20-25 rpm)): but not at higher speeds
- rotarod task recovery (PBBI rats [4]; two lower speeds (10-15 rpm)): promoted significant recovery (to SHAM levels)
- MWM performance (PBBI rats [5]): possibly an improvement in the MWM performance
- hypothermic effect (measured in the rectum) (PBBI rats [6]): about 2 degrees C.
- stability of lyophilized composition (lyophilized at 1-50 mg/ml in normal saline, with or without excipients): stable at −20 °C or at room temperature
- period of stability (insignificant degradation or aggregation of the peptide) (peptide in normal saline at 10-30 mg/ml, stored frozen): two
- total lesion volume (PBBI rats [7]; 20 mg/kg, TTC staining, p<0.05 vs PBBI/veh): 37±4 mm^3
- reduction in total lesion volume (PBBI rats [7]; 20 mg/kg, TTC staining, vs PBBI/veh): 33%
- overall (total) lesion volume (PBBI rats [7]; 0.5 mg/kg): did not significantly reduce overall lesion volume; also recorded: did not reach a significant neuroprotective effect on total lesion volume
- overall (total) lesion volume (PBBI rats [7]; 5.0 mg/kg): did not significantly reduce overall lesion volume; also recorded: did not reach a significant neuroprotective effect on total lesion volume

Substance: vdseissllurrqrrkkrgyin [retro-inverso analog of Tat-NR2B9c]
- inhibition of cerebral ischemia (cerebral ischemia): effective inhibiting cerebral ischemia
